Laboratory results taken from article PMC12392461, “Beyond Estrogenicity: A Comparative Assessment of Bisphenol A and Its Alternatives in In Vitro Assays Questions Safety of Replacements” (Environmental Science & Technology, 2025).
Like-named read-outs stand apart in the source and are kept apart here.

Assays:
Estrogen Receptor ERα [1] = biological target: T1, Estrogen Receptor ERα (Homo sapiens, UniProt P03372); experiment: aCYP oxidation followed by ERα-UAS-bla GripTite assay (TK-Ratio of effect); assay type: cell-based; details: for EC10, before oxidation / EC10, after oxidation: ERα, in M; for EC10, after oxidation: after abiotic CYP catalyst; for TKERα: TKERα-Ratio
T1 sequence (P03372 311-547 limits assumed): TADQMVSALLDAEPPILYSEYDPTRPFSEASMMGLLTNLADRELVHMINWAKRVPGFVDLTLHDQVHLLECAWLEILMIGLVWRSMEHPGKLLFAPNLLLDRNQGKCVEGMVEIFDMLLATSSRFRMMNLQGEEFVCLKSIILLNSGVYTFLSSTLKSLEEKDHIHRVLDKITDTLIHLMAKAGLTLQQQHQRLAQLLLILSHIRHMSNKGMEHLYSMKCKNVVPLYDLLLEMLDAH
Procedure: Cell culture conditions and bioassay protocols including response detection are provided in Text S2.1–2.4 and Table S3. − Cell viability was determined from cell confluency using an IncuCyte S3 Live-Cell Analysis System (Sartorius AG, Essen, Germany) before and after exposure, except for SH-SY5Y cells (live–dead staining with Nuclear Green LcS1 and propidium iodide, Abcam, UK). For metabolic activation experiments, cell viability was assessed using the ToxBLAzer DualScreen Kit (Thermo Fisher Scientific) to capture the remaining toxicity in ERα-UAS-bla GripTite after treatment with the aCYP catalyst (details in Text S2.4). […]
The TK-Ratio method was used to evaluate the impact of abiotic CYP oxidation on the potency of tested compounds. […]
For experiments with the preceding aCYP activation, ERα cell viability was additionally calculated from the readout of the ToxBLAzer reagent. The ToxBLAzer assay was conducted following the manufacturer's instructions (Thermo Fisher, Waltham, MA, U.S.).13 Fluorescence intensity was recorded at the start of the assay ( Fwavelength(0h)) and after a 2-hour incubation at […]
Cell viability was assessed based on the red fluorescence signal at 665 nm, applying eq. S11 for normalization.
Cell viability = F665nm(2h, sample)-F665nm(0h, average cell-free) (S11) F665nm(2h, average unexposed)-F665nm(0h, average cell-free) […]
the specific endpoint to avoid artifacts from cytotoxicity burst. 15
S2.5: Concentration-response curves (CRCs)
To avoid bias from cytotoxicity burst at higher concentrations, all concentrations exceeding the IC10 for cytotoxicity were excluded in the CRC modeling of effects but otherwise cytotoxicity and effects were fitted with the same model equations (response stands for cytotoxicity or effect). For ERα, AhR, ARE and PPARγ preferably a linear model was fitted to the linear portion of CRC up to maximum 30% effect (eq. S12),16 but in some cases it was necessary to choose a sigmoidal log-concentration-response model, specifically a log-logistic model (eq. S13), to derive effect concentrations and cytotoxicity. For mitochondrial toxicity and neurotoxicity, the […]
are not reporter gene assays. Common practice when using log-logistic models, e.g., the model implemented in tcpl package in R,17, 18 is that the minima and maxima are also fitted and only median effect concentrations AC50 are derived. […]
concentrations (EC10) for both linear and log-sigmoidal CRCs to allow absolute comparisons at the same effect level and for TR and SR -analysis. This was done using the AutomatedBioassayScreening19 published by Braun et al.,20 which also included an algorithm to choose the best model between eq. S12 and eq. S13.
Response (%) = slope × C (S12) […]
logEC =logEC − 1 ∙log (max−min − 100%) (S14)

Estrogen Receptor ERα [2] = biological target: T1, Estrogen Receptor ERα; experiment: cell-based; details: for EC10, ERα (M): 10% of maximum effect of E2; for REPBPA,ERα (relative effect potency in relation to BPA): EC10,BPA/EC10,BPx; for SR-ScoreERα: SR-Score, sigma k=1, x=5; for Efficacy % / EC10 / REPBPA: This Study; for EC10: ERα; for REPBPA: relative estrogenic potency vs BPA; for Specificity ratio (SRbaseline) SRERα: against baseline cytotoxicity; for log(1/EC10) ERα: input of the ToxPi score, values up to 1.00; for Relative effect potency REPERα: relative to BPA; for ERα activation: at noncytotoxic concentrations
Outline: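 ERα-UAS-bla GripTite and PPARγ-UAS-bla reporter cells were seeded in assay medium with 2% charcoal-stripped FBS and held 24 h at 37 °C before dosing. Viability came from IncuCyte confluency before and after exposure. EC10 used only concentrations below IC10; Emax% is the log-logistic curve maximum relative to the reference chemical.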

[3] = ERα bioassay, dosing range all, in M
[4] = ERα bioassay, dosing range all, linear model, in M
[5] = ERα bioassay, dosing range all, log-logistic model
[6] = against experimental cytotoxicity
[7] = read-out: Emax%ERα, maximum efficacy relative to E2
[8] = Bioassay ERα, dosing range all, linear model fit
[9] = Bioassay ERα, dosing range all, log-logistic model fit
[10] = Bioassay ERα, dosing range high, in M
[11] = Bioassay ERα, dosing range high, linear model fit, in M
[12] = Bioassay ERα, dosing range high, log-logistic model fit
[13] = Bioassay ERα, dosing range low, in M
[14] = Bioassay ERα, dosing range low, linear model fit, in M
[15] = Bioassay ERα, dosing range low, log-logistic model fit
[16] = Bioassay ERα, dosing range all, in M
[17] = Bioassay ERα, dosing range all, linear model fit, in M

SMILES | EC10, before oxidation (Estrogen Receptor ERα [1]; Table S10) | EC10, ERα (M) (Estrogen Receptor ERα [2]) | SR-ScoreERα (Estrogen Receptor ERα [2]) | Efficacy % (Estrogen Receptor ERα [2]) | EC10 (Estrogen Receptor ERα [2]; in M) | REPBPA (Estrogen Receptor ERα [2]) | Specificity ratio (SRbaseline) SRERα (Estrogen Receptor ERα [2]) | EC10, ERα (Estrogen Receptor ERα [2]; effect) | log(1/EC10) ERα (Estrogen Receptor ERα [2]) | Relative effect potency REPERα (Estrogen Receptor ERα [2]) | ERα activation (Estrogen Receptor ERα [2]) | Emax (Estrogen Receptor ERα [2]; [7]) | EC10, linear (Estrogen Receptor ERα [2]; [8]) | logEC10 (Estrogen Receptor ERα [2]; [9]) | EC10, after oxidation (Estrogen Receptor ERα [1]; Table S10) | TKERα (Estrogen Receptor ERα [1]; Table S10) | other results
CC1(C)C(O)C(C)(C)C1O (racemic) [r-TMCD, 2,2,4,4-Tetramethyl-1,3-cyclobutanediol (racemate)] | 1.18E-02 | 1.29 × 10^–2 M | 0.00722 | <20% | 1.29E-02 | 2.88E-05 | 0.08 | 12900 µM | 0.24 | 2.88e-5 | – | – | – | – | – | – | REPBPA,ERα (relative effect potency in relation to BPA) (Estrogen Receptor ERα [2]): 2.9 × 10^–5; EC10, linear transformed (Estrogen Receptor ERα [2]; [3]): 1.18E-02; EC10, linear (Estrogen Receptor ERα [2]; [4]): 1.29E-02; logEC10 (Estrogen Receptor ERα [2]; [5]): -1.93
O=S(=O)(c1ccc(O)cc1)c1ccccc1O [2,4-BPS, 2,4'-Dihydroxydiphenyl sulfone] | 3.59E-05 | 1.98 × 10^–5 M | 1.00 | – | – | – | 27.68 | 19.8 µM | 0.60 | 0.0187 | did not activate ERα at noncytotoxic concentrations | 19% | – | – | – | – | times less potent than BPS (ERα) (Estrogen Receptor ERα [2]): 10; REPBPA,ERα (relative effect potency in relation to BPA) (Estrogen Receptor ERα [2]): 0.019; EC10, linear transformed (Estrogen Receptor ERα [2]; [3]): 3.59E-05; EC10, linear (Estrogen Receptor ERα [2]; [4]): 5.15E-05; logEC10 (Estrogen Receptor ERα [2]; [5]): -4.70; Specificity ratio (SRcytotoxicity) SRERα (Estrogen Receptor ERα [2]; [6]): 21.81
CC(C)(c1ccc(OCC2CO2)cc1)c1ccc(OCC2CO2)cc1 (centres unmarked) [BADGE, Bisphenol A diglycidyl ether] | – | – | – | – | – | – | – | – | – | – | did not activate ERα at noncytotoxic concentrations | – | no effect | no effect | – | – | –
CC(C)(c1ccc(O)cc1)c1ccc(O)cc1 [BPA, 4,4'-(Propane-2,2-diyl)diphenol, reference compound] | 3.70E-07 | 3.70 × 10^–7 M | 1.00 | 37.53% | 3.70E-07 | 1.00E+00 | 31.86 | 0.37 µM | 0.82 | 1.00 | – | – | – | – | 4.48E-07 | 0.827 | estrogenic activity after aCYP oxidation (Estrogen Receptor ERα [1]): remained unchanged or decreased; EC10, after oxidation (Estrogen Receptor ERα [1]; Table S11): 3.06E-07; EC10, before oxidation (Estrogen Receptor ERα [1]; Table S11): 3.74E-07; TKERα (Estrogen Receptor ERα [1]; Table S11): 1.22; EC10, ERα (Estrogen Receptor ERα [2]): 0.37 µM; EC10, linear transformed (Estrogen Receptor ERα [2]; [10]): 1.46E-07; EC10, linear (Estrogen Receptor ERα [2]; [11]): 1.81E-07; logEC10 (Estrogen Receptor ERα [2]; [12]): -7.06; EC10, linear transformed (Estrogen Receptor ERα [2]; [13]): 3.70E-07; EC10, linear (Estrogen Receptor ERα [2]; [14]): 2.69E-07; logEC10 (Estrogen Receptor ERα [2]; [15]): -6.43; SRcytotoxicity (ERα) (Estrogen Receptor ERα [2]; human, 24 h): 115; Specificity ratio (SRcytotoxicity) SRERα (Estrogen Receptor ERα [2]; human, 24 h): 115.28; times less potent than the reference estradiol (E2) (Estrogen Receptor ERα [2]; ratio of EC10): 18700; Emax (Estrogen Receptor ERα [2]; read-out: Emax%ERα): 38%
CCC(C)(c1ccc(O)cc1)c1ccc(O)cc1 [BPB, 4,4'-(Butane-2,2-diyl)diphenol] | 1.07E-07 | 1.35 × 10^–7 M | 1.00 | 23.67% | 1.35E-07 | 2.74E+00 | 66.42 | 0.135 µM | 0.88 | 2.74 | – | 24% | – | – | 3.59E-07 | 0.2982 | EC10, linear transformed (Estrogen Receptor ERα [2]; [10]): 5.57E-08; EC10, linear (Estrogen Receptor ERα [2]; [11]): 8.29E-08; logEC10 (Estrogen Receptor ERα [2]; [12]): -7.27; EC10, linear transformed (Estrogen Receptor ERα [2]; [13]): 1.07E-07; EC10, linear (Estrogen Receptor ERα [2]; [14]): 1.35E-07; logEC10 (Estrogen Receptor ERα [2]; [15]): -6.97; REPBPA,ERα (relative effect potency in relation to BPA) (Estrogen Receptor ERα [2]): 3; Specificity ratio (SRcytotoxicity) SRERα (Estrogen Receptor ERα [2]; [6]): 154.61
Oc1ccc(Cc2ccc(O)cc2)cc1 [BPF, Bis(4-hydroxyphenyl)methane] | 9.67E-07 | 9.95 × 10^–7 M | – | 60.05% | 9.95E-07 | 3.72E-01 | – | 0.995 µM | 0.77 | – | – | 50 to 60% | – | -6.00 | 1.00E-06 | 0.964 | EC10, after oxidation (Estrogen Receptor ERα [1]; Table S11): 1.36E-06; EC10, before oxidation (Estrogen Receptor ERα [1]; Table S11): 1.26E-06; TKERα (Estrogen Receptor ERα [1]; Table S11): 0.93; EC10, linear transformed (Estrogen Receptor ERα [2]; [16]): 9.67E-07; EC10, linear (Estrogen Receptor ERα [2]; [17]): 1.45E-06; Emax%ERα (Estrogen Receptor ERα [2]; maximum efficacy relative to E2): 60%
CC(C)c1cc(C(C)(C)c2ccc(O)c(C(C)C)c2)ccc1O [BPG, 2,2-Bis(4-hydroxy-3-isopropylphenyl)propane] | 9.02E-07 | 9.02 × 10^–7 M | 0.94 | 19.01% | 9.02E-07 | 4.11E-01 | 1.60 | 0.902 µM | 0.77 | 0.41 | – | 19% | – | -6.04 | 3.40E-06 | 0.2649 | EC10, after oxidation (Estrogen Receptor ERα [1]; Table S11): 1.51E-05; EC10, before oxidation (Estrogen Receptor ERα [1]; Table S11): 9.71E-06; TKERα (Estrogen Receptor ERα [1]; Table S11): 0.64; EC10, linear transformed (Estrogen Receptor ERα [2]; [16]): 9.02E-07; EC10, linear (Estrogen Receptor ERα [2]; [17]): 9.31E-07; Specificity ratio (SRcytotoxicity) SRERα (Estrogen Receptor ERα [2]; [6]): 7.71
CC(C)(c1ccc(O)c(-c2ccccc2)c1)c1ccc(O)c(-c2ccccc2)c1 [BPPH, 2,2-Bis(2-hydroxy-5-biphenylyl)propane] | – | – | – | – | – | – | – | – | – | – | did not activate ERα at noncytotoxic concentrations | 0% | no effect | no effect | – | – | –
O=S(=O)(c1ccc(O)cc1)c1ccc(OCc2ccccc2)cc1 [BPS-MPE, 4-[4-(benzyloxy)benzenesulfonyl]phenol] | – | – | – | – | – | – | – | – | – | – | did not activate ERα at noncytotoxic concentrations | – | no effect | no effect | – | – | –
Cc1ccc(S(=O)(=O)NC(=O)Nc2cccc(OS(=O)(=O)c3ccc(C)cc3)c2)cc1 [Pergafast, N-(p-toluenesulfonyl)-N'-(3-(p-toluenesulfonyloxy)phenyl)urea] | – | – | – | – | – | – | – | – | – | – | did not activate ERα at noncytotoxic concentrations | – | no effect | no effect | – | – | –
Cc1cc(Cc2cc(C)c(O)c(C)c2)cc(C)c1O [TMBPF, Bis(3,5-dimethyl-4-hydroxyphenyl)methane] | – | – | – | – | – | – | – | – | – | – | did not activate ERα at noncytotoxic concentrations | – | no effect | no effect | – | – | Emax (Estrogen Receptor ERα [2]; read-out: Emax%ERα): 0%
CC1(C)[C@H](O)C(C)(C)[C@H]1O [Trans TMCD] | – | – | – | – | – | – | – | – | – | – | – | – | – | – | – | – | EC10, linear transformed (Estrogen Receptor ERα [2]; [3]): 3.18E-03; EC10, linear (Estrogen Receptor ERα [2]; [4]): 3.03E-03; logEC10 (Estrogen Receptor ERα [2]; [5]): -2.47
